Measured values taken from US11382956B2, “Amylin analogues” (Zealand Pharma A/S, priority 2016, dated 2022).
Numbered stars: 1 amine (or outer) side, 2 acyl side, 3 side chain; on linkers, the order of the positions; unused ones are H or OH. Bridge positions count the residues as written; N and C are the ends. Square brackets hold non-standard residues; d marks the D form. Peptide text beside a SMILES is read from it. * marks the point of attachment. C20 diacid = O=C(O)CCCCCCCCCCCCCCCCCCC(=O)*; γGlu = O=C(O)[C@H](CCC(=O)[*:2])N[*:1]; Hyp = O=C(O)[C@@H]1C[C@@H](O)CN1; NMeI = CC[C@H](C)[C@H](NC)C(=O)O; Orn = NCCC[C@H](N)C(=O)O; Sar = CNCC(=O)O

Legend:
[1] = target: T1, recombinant human amylin 3 receptor (hAMYR3) (Homo sapiens, UniProt O60896+P30988); test: hAMYR3 cAMP assay (AlphaScreen) in 1321N1 cells; type: cell-based; conditions: cAMP formation, 45 min stimulation
T1 construct: host or cells: human astrocytoma cell line 1321N1
T1 sequence (P30988 25-474): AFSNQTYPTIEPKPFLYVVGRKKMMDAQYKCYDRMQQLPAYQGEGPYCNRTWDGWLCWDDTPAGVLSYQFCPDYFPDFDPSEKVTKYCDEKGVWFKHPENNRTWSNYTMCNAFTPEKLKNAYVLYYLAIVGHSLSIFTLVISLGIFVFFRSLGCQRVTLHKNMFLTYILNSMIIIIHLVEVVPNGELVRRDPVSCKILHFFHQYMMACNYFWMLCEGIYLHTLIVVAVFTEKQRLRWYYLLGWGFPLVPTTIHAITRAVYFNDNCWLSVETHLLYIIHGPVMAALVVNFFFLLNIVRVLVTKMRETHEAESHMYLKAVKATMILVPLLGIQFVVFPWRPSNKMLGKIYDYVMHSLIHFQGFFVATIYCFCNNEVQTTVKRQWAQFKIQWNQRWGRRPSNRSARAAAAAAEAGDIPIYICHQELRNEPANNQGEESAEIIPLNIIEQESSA
T1 sequence (O60896 24-148 partner): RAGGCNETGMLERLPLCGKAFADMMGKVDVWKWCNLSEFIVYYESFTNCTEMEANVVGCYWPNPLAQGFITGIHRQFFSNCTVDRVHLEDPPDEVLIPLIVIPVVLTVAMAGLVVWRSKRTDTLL
In short: (§1)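 1321N1 astrocytoma cells expressing recombinant human calcitonin receptor alone or with RAMP3 (AMY3) stimulated 45 min at room temperature with peptide in IBMX-containing buffer. cAMP quantified by AlphaScreen after 1 h bead incubation; EC50 fitted from at least 7 concentrations.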

[2] = Pharmacokinetic (PK) profiling in rats; conditions: male, Sprague Dawley, plasma; rat, single sc bolus 30 nmol/kg; read-out: in vivo half life t1/2 (plasma terminal elimination half-life) (converted)
Method: Sprague Dawley male rats were given a single subcutaneous (sc) bolus of each peptide to be tested, as specified below.
30 nmol/kg doses of compound were administered. Blood samples were drawn from the tail vein prior to dosing and at 24 and 96 hours after dosing. The rats were euthanized immediately after the last blood sampling by concussion and cervical dislocation.
The dosing vehicle used for each test peptide was a mannitol-containing histidine buffer (pH 7.0). Plasma samples were analyzed after precipitation with ethanol by liquid chromatography mass spectrometry (LC-MS/MS). Mean plasma concentrations were used for calculation of the pharmacokinetic parameters.
Plasma terminal elimination half-life (t1/2) was determined as In(2)/λz, where λz is the magnitude of the slope of the log linear regression of the log concentration versus time profile during the terminal phase.

[3] = target: T2, recombinant human calcitonin receptor (hCT-R) (Homo sapiens, UniProt P30988); test: hCT-R cAMP assay (AlphaScreen) in 1321N1 cells; type: cell-based; conditions: cAMP formation, 45 min stimulation
T2 construct: host or cells: human astrocytoma cell line 1321N1
T2 sequence (P30988 25-474): T1 sequence (P30988 25-474)
In short: as §1

[4] = Assessment of physical stability: fibril formation by Thioflavin T fluorescence; type: physicochemical; parameters: key: FND = fibrillation not detected; FD = fibrillation detected; conditions: 1 mg/mL peptide; for Fibrillation (in buffer) pH4 acetate: 50 mM acetate buffer pH 4.0, 96 hours at 40° C.; for Fibrillation (in buffer) pH7 histidine: 50 mM histidine buffer pH 7.0, 96 hours at 40° C.; for Fibrillation (in buffer) pH7 phosphate: 50 mM phosphate buffer pH 7.0, 96 hours at 40° C.
In short: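 Test peptide at 1 mg/mL with 40 μM ThT in 50 mM phosphate pH 7.0, 50 mM histidine pH 7.0, or 50 mM acetate pH 4.0, in triplicate. Fluorescence read every 10 min after 300 s agitation for 96 hours at 40° C; significant intensity rise scored as fibrillation detected (FD).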

[5] = Effect on acute food intake and body weight in normal Sprague Dawley rats; type: in vivo, Sprague Dawley (SD) rats; conditions: Dose: 30 nmol/kg sc, vehicle-corrected
Text: Sprague Dawley (SD) rats were obtained from Janvier Labs, France. The animals arrived at least 14 days before the study start to allow acclimatization to experimental conditions. From arrival and throughout the study, the rats were housed in groups of 2 to 4 (n=2-4) in a light-, temperature- and humidity-controlled room. Animals had access ad libitum to food (KLIBA 3430, Provimi Kliba AG, Switzerland) and water (domestic quality tap water) during the entire study. Per group 6-8 rats were included. A vehicle group and positive control group were included in each set of tests. […] Dosing volume was 2 ml/kg. Food intake was recorded online using an automated food intake system (HM02, MBRose, Denmark) for 4 days or manually at 0 h for a predose and then 24, 48, 72 and 96 h post dosing. Body weight was measured daily.
Statistical analyses were performed using GraphPad™ Prism version 7. The measured parameters were compared using two-way ANOVA followed by Dunnett's multiple comparison tests. Differences were considered statistically significant at p<0.05.

[6] = Assessment of chemical stability in 40 mM buffers at 40° C. (RP-HPLC); type: physicochemical; conditions: 1 mg/mL; for % degradation after 72 h at 40° C. pH4 acetate: acetate buffer pH 4, 72 h; for % degradation after 72 h at 40° C. pH6 phosphate: phosphate buffer pH 6, 72 h; for % degradation after 14 days at 40° C. pH6 phosphate: phosphate buffer pH 6, 14 days; for % degradation after 72 h at 40° C. pH7 phosphate: phosphate buffer pH 7, 72 h; for % degradation after 14 days at 40° C. pH4 acetate: acetate buffer pH 4, 14 days; for % degradation after 14 days at 40° C. pH7 phosphate: phosphate buffer pH 7, 14 days
In short: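 Peptides at 1 mg/mL in 40 mM acetate pH 4 or phosphate pH 6 and 7 were held at 40° C for 3 and 14 days. Main-peak area-% by C8 RP-HPLC, UV 220 nm; % degradation = change in main-peak area-% versus t=0.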

Compound | EC50 [1] [nM] | half-life [2] [h] | EC50 [3] [nM] | Fibrillation (in buffer) pH4 acetate [4] | Fibrillation (in buffer) pH7 histidine [4] | Fibrillation (in buffer) pH7 phosphate [4] | Body weight reduction in % at 48 h [5] [%] | Food intake reduction in % at 48 h [5] [%] | % degradation after 72 h at 40° C. pH4 acetate [6] [%] | % degradation after 72 h at 40° C. pH6 phosphate [6] [%] | % degradation after 14 days at 40° C. pH6 phosphate [6] [%] | % degradation after 72 h at 40° C. pH7 phosphate [6] [%] | % degradation after 14 days at 40° C. pH4 acetate [6] [%] | % degradation after 14 days at 40° C. pH7 phosphate [6] [%]
CC[C@H](C)[C@@H](C(=O)N[C@@H](CC(C)C)C(=O)N[C@@H](CO)C(=O)N[C@@H](CO)C(=O)N[C@H](C(=O)N[C@@H](CCC(=O)O)C(=O)N[C@H](C(=O)NCC(=O)N[C@@H](CO)C(=O)N[C@@H](CC(N)=O)C(=O)N[C@H](C(=O)N1C[C@H](O)C[C@H]1C(N)=O)[C@@H](C)O)C(C)C)[C@@H](C)O)N(C)C(=O)[C@H](C)NC(=O)CN(C)C(=O)[C@H](Cc1ccccc1)NC(=O)[C@H](CO)NC(=O)[C@H](CO)NC(=O)[C@H](CCCNC(=N)N)NC(=O)[C@H](CCC(N)=O)NC(=O)[C@H](CC(C)C)NC(=O)[C@H](Cc1ccccc1)NC(=O)[C@H](Cc1c[nH]cn1)NC(=O)[C@H](C)NC(=O)[C@H](CC(C)C)NC(=O)[C@H](CCCNC(=N)N)NC(=O)[C@H](CCC(=O)O)NC(=O)[C@@H](NC(=O)[C@H](C)NC(=O)[C@@H]1CCCNC(=O)C[C@H](NC(=O)[C@H](CCCNC(=N)N)NC(=O)CC[C@H](NC(=O)CCCCCCCCCCCCCCCCCCC(=O)O)C(=O)O)C(=O)NCC(=O)N[C@@H]([C@@H](C)O)C(=O)N[C@@H](C)C(=O)N[C@@H]([C@@H](C)O)C(=O)N1)[C@@H](C)O [Compound 3, [19CD]-isoGlu-RD()GTAT-Orn()-ATERLAHFLQRSSF-Gly(Me)-A-Ile(Me)-LSSTEVGSNT-Hyp-NH2] ({C20 diacid-γGlu}-RDGTAT[Orn]ATERLAHFLQRSSF[Sar]A[NMeI]LSSTEVGSNT[Hyp]-NH2; lactam 2-7) | 0.035 | 21.3 | 0.081 | FND | FND | FD | 5.6 | 34 | <1 | 3.2 | 1.0 | 1.2 |  | 
CC[C@H](C)[C@@H](C(=O)N[C@@H](CC(C)C)C(=O)N[C@@H](CO)C(=O)N[C@@H](CO)C(=O)N[C@H](C(=O)N[C@@H](CCC(=O)O)C(=O)N[C@H](C(=O)NCC(=O)N[C@@H](CO)C(=O)N[C@@H](CC(N)=O)C(=O)N[C@H](C(=O)N1C[C@H](O)C[C@H]1C(N)=O)[C@@H](C)O)C(C)C)[C@@H](C)O)N(C)C(=O)[C@H](C)NC(=O)CN(C)C(=O)[C@H](Cc1ccccc1)NC(=O)[C@H](CO)NC(=O)[C@H](CO)NC(=O)[C@H](CCCNC(=N)N)NC(=O)[C@H](CCC(N)=O)NC(=O)[C@H](CC(C)C)NC(=O)[C@H](Cc1ccccc1)NC(=O)[C@H](Cc1c[nH]cn1)NC(=O)[C@H](C)NC(=O)[C@H](CC(C)C)NC(=O)[C@H](CCCNC(=N)N)NC(=O)[C@H](CCC(=O)O)NC(=O)[C@@H](NC(=O)[C@H](C)NC(=O)[C@@H]1CCCNC(=O)C[C@H](NC(=O)[C@H](CCCNC(=N)N)NC(=O)CC[C@H](NC(=O)CC[C@H](NC(=O)CCCCCCCCCCCCCCCCCCC(=O)O)C(=O)O)C(=O)O)C(=O)NCC(=O)N[C@@H]([C@@H](C)O)C(=O)N[C@@H](C)C(=O)N[C@@H]([C@@H](C)O)C(=O)N1)[C@@H](C)O [Compound 4, [19CD]-isoGlu-isoGlu-RD()GTAT-Orn()-ATERLAHFLQRSSF-Gly(Me)-A-Ile(Me)-LSSTEVGSNT-Hyp-NH2] ({C20 diacid-γGlu-γGlu}-RDGTAT[Orn]ATERLAHFLQRSSF[Sar]A[NMeI]LSSTEVGSNT[Hyp]-NH2; lactam 2-7) | 0.092 | 31.9 | 0.16 | FND | FND | FND | 4.6 | 34 | <1 | <1 | <1 | <1 | 1.6 | 6.4
CC[C@H](C)[C@@H](C(=O)N[C@@H](CC(C)C)C(=O)N[C@@H](CO)C(=O)N[C@@H](CO)C(=O)N[C@H](C(=O)N[C@@H](CCC(=O)O)C(=O)N[C@H](C(=O)NCC(=O)N[C@@H](CO)C(=O)N[C@@H](CC(N)=O)C(=O)N[C@H](C(=O)N1C[C@H](O)C[C@H]1C(N)=O)[C@@H](C)O)C(C)C)[C@@H](C)O)N(C)C(=O)[C@H](C)NC(=O)CN(C)C(=O)[C@H](Cc1ccccc1)NC(=O)[C@H](CO)NC(=O)[C@H](CO)NC(=O)[C@H](CCCNC(=N)N)NC(=O)[C@H](CCC(N)=O)NC(=O)[C@H](CC(C)C)NC(=O)[C@H](Cc1ccccc1)NC(=O)[C@H](Cc1c[nH]cn1)NC(=O)[C@H](C)NC(=O)[C@H](CC(C)C)NC(=O)[C@H](CCCNC(=N)N)NC(=O)[C@H](CCC(=O)O)NC(=O)[C@@H](NC(=O)[C@H](C)NC(=O)[C@@H]1CCCCNC(=O)C[C@H](NC(=O)[C@H](CCCNC(=N)N)NC(=O)CC[C@H](NC(=O)CCCCCCCCCCCCCCCCCCC(=O)O)C(=O)O)C(=O)NCC(=O)N[C@@H]([C@@H](C)O)C(=O)N[C@@H](C)C(=O)N[C@@H]([C@@H](C)O)C(=O)N1)[C@@H](C)O [Compound 18, [19CD]-isoGlu-RD()GTATK()ATERLAHFLQRSSF-Gly(Me)-A-Ile(Me)-LSSTEVGSNT-Hyp-NH2] ({C20 diacid-γGlu}-RDGTATKATERLAHFLQRSSF[Sar]A[NMeI]LSSTEVGSNT[Hyp]-NH2; lactam 2-7) | 0.031 | 30.1 | 0.085 | FND | FND | FND | 10 | 58 | <1 | <1 | 1.0 | <1 | <1 | 1.9
